According to patent US20260137828A1, “COMPOSITIONS AND METHODS INVOLVING PROBIOTIC MOLECULES” (MICROSINTESIS INC., priority 2017, published 2026):

Tests used:
HilA = assay: qPCR of HilA down-regulation in Salmonella; assay type: cell-based, Salmonella enterica typhimurium DT104; settings: reference 16S, individual synthetic biopeptides, 50 μg per assay
Description: The cell-free supernatant was separated using Sephadex G75 resin. The samples were separated and collected into fractions: Fraction 1 (>163000 Da), Fraction 2 (163000-14500 Da), Fraction 3 (14500-1300 Da), Fraction 4 (1300-110 Da), Fraction 5 (110-10 Da). The samples were collected and assayed by qPCR using Salmonella enterica typhimurium DT104 strain. The down-regulation of HilA was compared to the reference gene 16S.
The active fraction from G75 size exclusion chromatography was further separated using reverse phase chromatography. The fractions from the reverse phase: Fraction 1 (0-2 min), Fraction 2 (2-4 min), Fraction 3 (4-16 min), Fraction 4 (16-32 min), Fraction 5 (32-40 min), Fraction 6 (40-58 min). The fractions were dried and neutralized to remove acetonitrile and trifluoroacetic acid from the solvent. The dried fractions were assayed using the same qPCR assay conditions as above. The fractions were analyzed by de novo sequencing at the University of Guelph Advance Analytical center. The peptides from the active fractions of 6 batches were compared and common peptides from batches were deduced.
Additionally, the 1×sample from each probiotic culture was tested using the Salmonella qPCR assay described in example 1 or a Lactate Dehydrogenase (LDH) assay using either UPEC 099 or Staphylococcus aureus 81M. For the LDH assay the dried cell-free supernatant was resuspended into 5 mL of lysogeny broth and inoculated with either UPEC 099 or Staphylococcus aureus 81M and incubated for 4 hours. After incubation, the samples were centrifuged and the supernatant was assayed. A 100 μL aliquot of supernatant was added to 1 mL mammalian HT29 cells at 1×10^6 cells per mL in a 12-well plate. The samples were incubated for 45 minutes at 37° C. and 5% CO2. The supernatant was then assayed using the manufacture's protocol (Pierce LDH Cytotoxicity assay kit, Thermo Scientific, Rockford, Il, USA). The percent inhibition was calculated using the no treatment control and a detergent lysed control using the formula provided in the protocol (Table 3).

HylA = settings: reference GapA, individual synthetic biopeptides, 50 μg per assay
Description: The La-5 cell-free supernatant used for these experiments was batch D4. […] Strain 1 alias UPEC99 and strain 2 alias UPEC804. The strains were cultured on LB agar. Two different media were tested LB and artificial urine medium.
The UPEC were grown for 4 hours in the presence of cell-free supernatant. The cells were harvested and the RNA was extracted. The RNA was treated with DNAse I to remove genomic DNA. The RNA was used as a template to make cDNA. The cDNA was assayed by qPCR and the gene expression was normalized to a reference gene and compared to a without cell-free media control.
The synthetic bio-peptides were analyzed at 50 μg per assay.

MRSA = settings: after a 24 hour incubation; cited from earlier work
[1] = tested on: Staphylococcus aureus (strain alias 81M SPA t008); assay: Cefoxitin MIC testing with and without cell-free supernatant or size exclusion fractions; assay type: cell-based
Description: (§1) Three methicillin resistant Staphylococci (MRS) strains were used in these experiments: 1) Staphylococcus pseudintermedius (strain alias C260 22-2011 dtqa), a clinical isolate from a dog skin infection; 2) Staphylococcus aureus (strain alias LA-414M SPA t034), a livestock-associated strain isolated from beef purchased from a grocery store in Charlottetown, PEI, Canada; and 3) Staphylococcus aureus (strain alias 81M SPA t008), isolated from poultry meat purchased from a grocery store in Charlottetown, PEI, Canada. All three MRS strains were provided by the Atlantic Veterinary College (AVC) at the University of Prince Edward Island. The methicillin-resistance of these strains was confirmed by AVC staff using an oxacillin disk diffusion method. The strains were originally cultured on sheep blood agar slants, and then transferred to lysogeny broth agar plates. Cefoxitin resuspended in methanol was used for antibiotic resistance testing, and growth was tested in two different media types, standard Lysogeny Broth and standard BBL™ Cation-Adjusted Mueller-Hinton Medium (Becton, Dickinson and Company). The minimum inhibitory concentrations (MICs) of the cefoxitin was determined for each strain in each respective medium in the presence and absence of the cell-free supernatant. Assays were performed according to the Clinical and Laboratory Standards Institute (CLSI) guidelines for MIC testing of Staphylococcal species [CLSI, 2015] as well as the European Committee for Antimicrobial Susceptibility Testing (EUCAST) of the European Society of Clinical Microbiology and Infectious Diseases [EUCAST, 2003].
(§2) The protocol for MIC testing was as follows. The cell-free supernatants were resuspended in the respective media and filter sterilized through a […] pore size filter. The required concentration of dried cell free supernatant was weighed and added at concentrations ranging from 0-60 mg/mL. Cefoxitin was added to obtain final concentrations ranging from 0-250 μg/mL. Cultures of each respective strain were grown overnight in either lysogeny broth or Mueller Hinton for 16-20 hours at 37° C. and 200 rpm shaking in aerobic conditions to achieve optical densities at 600 nm (OD600) of 1.2-1.6. […] The cultures (150 μL) were grown in a 96-well clear flat-bottom microtiter plate. The microtiter plate was then covered in parafilm and incubated at 35° C.±2° C. for 24 hours. Following incubation, microplates were read at 600 nm using a microplate reader. […] The data is the average from two technical replicates from two biological replicates.
For the size exclusion chromatography the sample was separated using a Sephadex G75 resin. The samples were separated and collected into fractions: Fraction 1 (>163000 Da), Fraction 2 (163000-14500 Da), Fraction 3 (14500-1300 Da), Fraction 4 (1300-110 Da), Fraction 5 (110-10 Da).

[2] = tested on: Staphylococcus aureus (strain alias LA-414M SPA t034); assay: Cefoxitin MIC testing with and without cell-free supernatant; assay type: cell-based; settings: MRSA LA 414M
Description: as §1, §2

[3] = tested on: Staphylococcus pseudintermedius (strain alias C260 22-2011 dtqa); assay: as above; assay type: cell-based; settings: MSRP C260, Lysogeny Broth
Description: as §1, §2

YPPGGP
Fold down-regulation (HilA): 2.93 Fold | Fold down-regulation (HylA): 3.56 Fold

CVLPPK
Fold down-regulation (HilA): 3.75 Fold | Fold down-regulation (HylA): 3.20 Fold

Lactobacillus acidophilus
MRSA cells eliminated (MRSA): 99%

HLLPLP
Fold down-regulation (HilA): 2.93 Fold | Fold down-regulation (HylA): 2.64 Fold

LKPTPEGD
Fold down-regulation (HilA): 11.08 Fold | Fold down-regulation (HylA): 4.69 Fold

CO[C@@]1(NC(=O)Cc2cccs2)C(=O)N2C(C(=O)O)=C(COC(N)=O)CS[C@@H]21 [cefoxitin]
Range of Cefoxitin concentration to inhibition growth to O.D. <0.1 ([1]; MRSA 81M, Lysogeny Broth, 0 mg/mL dried cell-free supernatant): 75 to 125 µg/mL | Range of Cefoxitin concentration to inhibition growth to O.D. <0.1 ([1]; MRSA 81M, Lysogeny Broth, 5 mg/mL dried cell-free supernatant): 40 to 50 µg/mL | Range of Cefoxitin concentration to inhibition growth to O.D. <0.1 ([1]; MRSA 81M, Lysogeny Broth, 30 mg/mL dried cell-free supernatant): 30 to 40 µg/mL | Range of Cefoxitin concentration to inhibition growth to O.D. <0.1 ([1]; MRSA 81M, Lysogeny Broth, 60 mg/mL dried cell-free supernatant): 30 to 40 µg/mL | Range of Cefoxitin concentration to inhibition growth to O.D. <0.1 ([1]; MRSA 81M, Mueller-Hinton Broth, 0 mg/mL dried cell-free supernatant): 75 to 100 µg/mL | Range of Cefoxitin concentration to inhibition growth to O.D. <0.1 ([1]; MRSA 81M, Mueller-Hinton Broth, 5 mg/mL dried cell-free supernatant): 40 to 50 µg/mL | Range of Cefoxitin concentration to inhibition growth to O.D. <0.1 ([1]; MRSA 81M, Mueller-Hinton Broth, 30 mg/mL dried cell-free supernatant): 30 to 40 µg/mL | Range of Cefoxitin concentration to inhibition growth to O.D. <0.1 ([1]; MRSA 81M, Mueller-Hinton Broth, 60 mg/mL dried cell-free supernatant): 20 to 30 µg/mL | Range of Cefoxitin concentration to inhibition growth to O.D. <0.1 ([1]; Staphylococcus aureus 81M, control, cefoxitin only (0 mg/mL), Table 5): 60 to 75 µg/mL | Range of Cefoxitin concentration to inhibition growth to O.D. <0.1 ([2]; Lysogeny Broth, 0 mg/mL dried cell-free supernatant): 30 to 40 µg/mL | Range of Cefoxitin concentration to inhibition growth to O.D. <0.1 ([2]; Lysogeny Broth, 5 mg/mL dried cell-free supernatant): 15 to 20 µg/mL | Range of Cefoxitin concentration to inhibition growth to O.D. <0.1 ([2]; Lysogeny Broth, 30 mg/mL dried cell-free supernatant): 15 to 20 µg/mL | Range of Cefoxitin concentration to inhibition growth to O.D. <0.1 ([2]; Lysogeny Broth, 60 mg/mL dried cell-free supernatant): 10 to 15 µg/mL | Range of Cefoxitin concentration to inhibition growth to O.D. <0.1 ([2]; Mueller-Hinton Broth, 0 mg/mL dried cell-free supernatant): 50 to 60 µg/mL | Range of Cefoxitin concentration to inhibition growth to O.D. <0.1 ([2]; Mueller-Hinton Broth, 5 mg/mL dried cell-free supernatant): 40 to 50 µg/mL | Range of Cefoxitin concentration to inhibition growth to O.D. <0.1 ([2]; Mueller-Hinton Broth, 30 mg/mL dried cell-free supernatant): 20 to 30 µg/mL | Range of Cefoxitin concentration to inhibition growth to O.D. <0.1 ([2]; Mueller-Hinton Broth, 60 mg/mL dried cell-free supernatant): 20 to 30 µg/mL | Range of Cefoxitin concentration to inhibition growth to O.D. <0.1 ([3]; 0 mg/mL dried cell-free supernatant): 125 to 175 µg/mL | Range of Cefoxitin concentration to inhibition growth to O.D. <0.1 ([3]; 5 mg/mL dried cell-free supernatant): 50 to 75 µg/mL | Range of Cefoxitin concentration to inhibition growth to O.D. <0.1 ([3]; 30 mg/mL dried cell-free supernatant): 20 to 30 µg/mL | Range of Cefoxitin concentration to inhibition growth to O.D. <0.1 ([3]; 60 mg/mL dried cell-free supernatant): 20 to 30 µg/mL

YPVEPF
Fold down-regulation (HilA): 0.68 Fold | Fold down-regulation (HylA): 1.03 Fold

MALPPK
Fold down-regulation (HilA): 19.56 Fold | Fold down-regulation (HylA): 9.06 Fold
